What was measured:
Assay type in all cases: cell-based
RS4; 11 = assay: Cell growth inhibition, CellTiter-Glo Luminescent Cell Viability Assay, RS4;11; details: Homo sapiens, 96 h, RS4;11 cells, 4 days incubation
Experimental: Cell growth inhibitory activity of representative Compounds of the Disclosure was determined in various cell lines using CellTiter-Glo® Luminescent Cell Viability Assay. Cells were seeded in 384-well white opaque cell culture plates at a density of 2,000 cells/well with serially diluted compounds and incubated at 37° C. in an atmosphere of 95% air and 5% CO2 for 4 days. Cell viability was determined using the CellTiter-Glo® Luminescent Cell Viability Assay Kit (Promega, Madison, Wis.) according to the manufacture's instruction. Briefly, a volume of CellTiter-Glo® Reagent equal to the volume of cell culture medium was added to each well, and then the plates were incubated at room temperature for 10-20 minutes. The luminescent signal was measured using a Tecan Infinite M1000 multimode microplate reader (Tecan, Morrisville, N.C.). The half maximal inhibitory concentration (IC50) was calculated using the GraphPad Prism 5 software (GraphPad Software, La Jolla, Calif.).

MDA-MB-231 = assay: Cell growth inhibition, CellTiter-Glo Luminescent Cell Viability Assay, MDA-MB-231; details: Homo sapiens, MDA-MB-231, 96 h, MDA-MB-231 cells, 4 days incubation
In short: (§1)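 IC50 values come from CellTiter-Glo ATP luminescence after a 4-day exposure to a compound dilution series. Seeding was 2,000 cells per well at 37° C under 5% CO2, with reagent read after 10-20 min at room temperature.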

MOLM-13 = assay: Cell growth inhibition, CellTiter-Glo Luminescent Cell Viability Assay, MOLM-13; details: Homo sapiens, MOLM-13, 96 h, MOLM-13 cells, 4 days incubation
In short: as §1

SMILES	IC50 (RS4; 11) [nM]	IC50 (MDA-MB-231) [nM]	IC50 (MOLM-13) [nM]
Cc1c(C#Cc2cnn(CCCCNc3cccc4c3CN(C3CCC(=O)NC3=O)C4=O)c2)sc2c1C(c1ccc(Cl)cc1)=N[C@@H](C)c1nnc(C)n1-2 (stereo partly drawn) [compound 145, 3-(4-((4-(4-(((S)-4-(4-chlorophenyl)-3,6,9-trimethyl-6H-thieno[3,2-f][1,2,4]triazolo[4,3-a][1,4]diazepin-2-yl)ethynyl)-1H-pyrazol-1-yl)butyl)amino)-1-oxoisoindolin-2-yl)piperidine-2,6-dione]	0.13	0.39	–
Cc1c(C#Cc2cnn(CCCNc3ccc4c(c3)CN(C3CCC(=O)NC3=O)C4=O)c2)sc2c1C(c1ccc(Cl)cc1)=N[C@@H](C)c1nnc(C)n1-2 (stereo partly drawn) [compound 185, 3-(5-((3-(4-(((S)-4-(4-chlorophenyl)-3,6,9-trimethyl-6H-thieno[3,2-f][1,2,4]triazolo[4,3-a][1,4]diazepin-2-yl)ethynyl)-1H-pyrazol-1-yl)propyl)amino)-1-oxoisoindolin-2-yl)piperidine-2,6-dione]	–	0.1	0.2
Cc1c(C#Cc2cnn(CCCN3CCC(Nc4cccc5c4CN(C4CCC(=O)NC4=O)C5=O)CC3)c2)sc2c1C(c1ccc(Cl)cc1)=N[C@@H](CC(N)=O)c1nnc(C)n1-2 (stereo partly drawn) [compound 190, 2-((6S)-4-(4-chlorophenyl)-2-((1-(3-(4-((2-(2,6-dioxopiperidin-3-yl)-1-oxoisoindolin-4-yl)amino)piperidin-1-yl)propyl)-1H-pyrazol-4-yl)ethynyl)-3,9-dimethyl-6H-thieno[3,2-f][1,2,4]triazolo[4,3-a][1,4]diazepin-6-yl)acetamide]	–	0.1	0.05
CCNC(=O)C[C@@H]1N=C(c2ccc(Cl)cc2)c2c(sc(C#Cc3cnn(CCCN4CCC(Nc5cccc6c5CN(C5CCC(=O)NC5=O)C6=O)CC4)c3)c2C)-n2c(C)nnc21 (stereo partly drawn) [compound 191, 2-((6S)-4-(4-chlorophenyl)-2-((1-(3-(4-((2-(2,6-dioxopiperidin-3-yl)-1-oxoisoindolin-4-yl)amino)piperidin-1-yl)propyl)-1H-pyrazol-4-yl)ethynyl)-3,9-dimthyl-6H-thieno[3,2-f][1,2,4]triazolo[4,3-a][1,4]diazepin-6-yl)-N-ethylacetamide]	–	0.2	0.04
Cc1c(C#Cc2cnn(CCCN3CCC(Nc4cccc5c4CN(C4CCC(=O)NC4=O)C5=O)CC3)c2)sc2c1C(c1ccc(Cl)cc1)=N[C@@H](CC(=O)N1CCN(C)CC1)c1nnc(C)n1-2 (stereo partly drawn) [compound 192, 3-(4-((1-(3-(4-(((S)-4-(4-chlorophenyl)-3,9-dimethyl-6-(2-(4-methylpiperazin-1-yl)-2-oxoethyl)-6H-thieno[3,2-f][1,2,4]triazolo[4,3-a][1,4]diazepin-2-yl)ethynyl)-1H-pyrazol-1-yl)propyl)piperidin-4-yl)amino)-1-oxoisoindolin-2-yl)piperidine-2,6-dione]	–	0.08	0.07
Cc1c(C#Cc2cnn(CCCN3CCC(Nc4cccc5c4CN(C4CCC(=O)NC4=O)C5=O)CC3)c2)sc2c1C(c1ccc(Cl)cc1)=N[C@@H](CC(=O)Nc1ccc(O)cc1)c1nnc(C)n1-2 (stereo partly drawn) [compound 193, 2-((6S)-4-(4-chlorophenyl)-2-((1-(3-(4-((2-(2,6-dioxopiperidin-3-yl)-1-oxoisoindolin-4-yl)amino)piperidin-1-yl)propyl)-1H-pyrazol-4-yl)ethynyl)-3,9-dimethyl-6H-thieno[3,2-f][1,2,4]triazolo[4,3-a][1,4]diazepin-6-yl)-N-(4-hydroxyphenyl)acetamide]	–	0.06	0.03
Cc1c(C#Cc2cnn(CCOCCOCCOCC#Cc3cccc4c3CN(C3CCC(=O)NC3=O)C4=O)c2)sc2c1C(c1ccc(Cl)cc1)=N[C@@H](CC(=O)OC(C)(C)C)c1nnc(C)n1-2 (stereo partly drawn) [compound 194, tert-butyl 2-((6S)-4-(4-chlorophenyl)-2-((1-(2-(2-(2-((3-(2-(2,6-dioxopiperidin-3-yl)-1-oxoisoindolin-4-yl)prop-2-yn-1-yl)oxy)ethoxy)ethoxy)ethyl)-1H-pyrazol-4-yl)ethynyl)-3,9-dimethyl-6H-thieno[3,2-f][1,2,4]triazolo[4,3-a][1,4]diazepin-6-yl)acetate]	–	0.7	0.8
Cc1c(C#Cc2cnn(CCOCCOCCOCC#Cc3cccc4c3CN(C3CCC(=O)NC3=O)C4=O)c2)sc2c1C(c1ccc(Cl)cc1)=N[C@@H](CC(N)=O)c1nnc(C)n1-2 (stereo partly drawn) [compound 195, 2-((6S)-4-(4-chlorophenyl)-2-((1-(2-(2-(2-((3-(2-(2,6-dioxopiperidin-3-yl)-1-oxoisoindolin-4-yl)prop-2-yn-1-yl)oxy)ethoxy)ethoxy)ethyl)-1H-pyrazol-4-yl)ethynyl)-3,9-dimethyl-6H-thieno[3,2-f][1,2,4]triazolo[4,3-a][1,4]diazepin-6-yl)acetamide]	–	5.4	2.4
Cc1c(C#Cc2cnn(CCOCCOCCOCC#Cc3cccc4c3CN(C3CCC(=O)NC3=O)C4=O)c2)sc2c1C(c1ccc(Cl)cc1)=N[C@@H](C)c1nnc(C)n1-2 (stereo partly drawn) [compound 196]	–	0.4	0.2
Cc1c(C#Cc2cnn(CCOCCOCCOCC#Cc3cccc4c3CN(C3CCC(=O)NC3=O)C4=O)c2)sc2c1C(c1ccc(Cl)cc1)=N[C@@H](CC(=O)N1CCN(C)CC1)c1nnc(C)n1-2 (stereo partly drawn) [compound 197, 3-(4-(3-(2-(2-(2-(4-(((S)-4-(4-chlorophenyl)-3,9-dimethyl-6-(2-(4-methylpiperazin-1-yl)-2-oxoethyl)-6H-thieno[3,2-f][1,2,4]triazolo[4,3-a][1,4]diazepin-2-yl)ethynyl)-1H-pyrazol-1-yl)ethoxy)ethoxy)ethoxy)prop-1-yn-1-yl)-1-oxoisoindolin-2-yl)piperidine-2,6-dione]	–	2.5	1.1
Cc1ncsc1-c1ccc([C@H](C)NC(=O)[C@@H]2C[C@@H](O)CN2C(=O)[C@@H](NC(=O)COCCOCCOCCOCCn2cc(C#Cc3sc4c(c3C)C(c3ccc(Cl)cc3)=N[C@@H](C)c3nnc(C)n3-4)cn2)C(C)(C)C)cc1 [compound 198, (2S,4R)-1-((S)-2-(tert-butyl)-17-(4-(((S)-4-(4-chlorophenyl)-3,6,9-trimethyl-6H-thieno[3,2-f][1,2,4]triazolo[4,3-a][1,4]diazepin-2-yl)ethynyl)-1H-pyrazol-1-yl)-4-oxo-6,9,12,15-tetraoxa-3-azaheptadecanoyl)-4-hydroxy-N-((S)-1-(4-(4-methylthiazol-5-yl)phenyl)ethyl)pyrrolidine-2-carboxamide]	–	1.5	0.24 ± 0.06
Cc1ncsc1-c1ccc([C@H](C)NC(=O)[C@@H]2C[C@@H](O)CN2C(=O)[C@@H](NC(=O)COCCCn2cc(C#Cc3sc4c(c3C)C(c3ccc(Cl)cc3)=N[C@@H](C)c3nnc(C)n3-4)cn2)C(C)(C)C)cc1 [compound 199, (2S,4R)-1-((S)-2-(2-(3-(4-(((S)-4-(4-chlorophenyl)-3,6,9-trimethyl-6H-thieno[3,2-f][1,2,4]triazolo[4,3-a][1,4]diazepin-2-yl)ethynyl)-1H-pyrazol-1-yl)propoxy)acetamido)-3,3-dimethylbutanoyl)-4-hydroxy-N-((S)-1-(4-(4-methylthiazol-5-yl)phenyl)ethyl)pyrrolidine-2-carboxamide]	–	6.7	0.5 ± 0.06
Cc1ncsc1-c1ccc([C@H](C)NC(=O)[C@@H]2C[C@@H](O)CN2C(=O)[C@@H](NC(=O)COCCOCCOCCn2cc(C#Cc3sc4c(c3C)C(c3ccc(Cl)cc3)=N[C@@H](C)c3nnc(C)n3-4)cn2)C(C)(C)C)cc1 [compound 200, (2S,4R)-1-((S)-2-(tert-butyl)-14-(4-(((S)-4-(4-chlorophenyl)-3,6,9-trimethyl-6H-thieno[3,2-f][1,2,4]triazolo[4,3-a][1,4]diazepin-2-yl)ethynyl)-1H-pyrazol-1-yl)-4-oxo-6,9,12-trioxa-3-azatetradecanoyl)-4-hydroxy-N-((S)-1-(4-(4-methylthiazol-5-yl)phenyl)ethyl)pyrrolidine-2-carboxamide]	–	3.1	0.34 ± 0.03
Cc1ncsc1-c1ccc([C@H](C)NC(=O)[C@@H]2C[C@@H](O)CN2C(=O)[C@@H](NC(=O)COCCOCCn2cc(C#Cc3sc4c(c3C)C(c3ccc(Cl)cc3)=N[C@@H](C)c3nnc(C)n3-4)cn2)C(C)(C)C)cc1 [compound 201, (2S,4R)-1-((S)-2-(2-(2-(2-(4-(((S)-4-(4-chlorophenyl)-3,6,9-trimethyl-6H-thieno[3,2-f][1,2,4]triazolo[4,3-a][1,4]diazepin-2-yl)ethynyl)-1H-pyrazol-1-yl)ethoxy)ethoxy)acetamido)-3,3-dimethylbutanoyl)-4-hydroxy-N-((S)-1-(4-(4-methylthiazol-5-yl)phenyl)ethyl)pyrrolidine-2-carboxamide]	–	24.9	2.1 ± 0.32
Cc1ncsc1-c1ccc([C@H](C)NC(=O)[C@@H]2C[C@@](C)(O)CN2C(=O)[C@@H](NC(=O)COCCCn2cc(C#Cc3sc4c(c3C)C(c3ccc(Cl)cc3)=N[C@@H](C)c3nnc(C)n3-4)cn2)C(C)(C)C)cc1 [compound 205, (2S,4R)-1-((S)-2-(2-(3-(4-(((S)-4-(4-chlorophenyl)-3,6,9-trimethyl-6H-thieno[3,2-f][1,2,4]triazolo[4,3-a][1,4]diazepin-2-yl)ethynyl)-1H-pyrazol-1-yl)propoxy)acetamido)-3,3-dimethylbutanoyl)-4-hydroxy-4-methyl-N-((S)-1-(4-(4-methylthiazol-5-yl)phenyl)ethyl)pyrrolidine-2-carboxamide]	–	93	42.3

— patent US10975093B2, “Fused 1,4-diazepines as BET protein degraders” (THE REGENTS OF THE UNIVERSITY OF MICHIGAN, priority 2016, dated 2021)
